Publication PMC4275348 (Molecular microbiology, 2014)
Residue numbers refer to the chain shown, from its start.

Tests used:
[1] = molecular target: LuxN (Vibrio campbellii, UniProt A7MRY4); conditions: 1 μM AHL; V. harveyi TL25; versus DMSO
[2] = molecular target: T1, LuxN^G147D/Y194H (Vibrio campbellii, UniProt A7MRY4, G147D/Y194H); experiment: Bioluminescence of V. harveyi XK006 carrying luxN G147D/Y194H; type: cell-based, Vibrio harveyi
T1 sequence (A7MRY4 1-849 G147D/Y194H): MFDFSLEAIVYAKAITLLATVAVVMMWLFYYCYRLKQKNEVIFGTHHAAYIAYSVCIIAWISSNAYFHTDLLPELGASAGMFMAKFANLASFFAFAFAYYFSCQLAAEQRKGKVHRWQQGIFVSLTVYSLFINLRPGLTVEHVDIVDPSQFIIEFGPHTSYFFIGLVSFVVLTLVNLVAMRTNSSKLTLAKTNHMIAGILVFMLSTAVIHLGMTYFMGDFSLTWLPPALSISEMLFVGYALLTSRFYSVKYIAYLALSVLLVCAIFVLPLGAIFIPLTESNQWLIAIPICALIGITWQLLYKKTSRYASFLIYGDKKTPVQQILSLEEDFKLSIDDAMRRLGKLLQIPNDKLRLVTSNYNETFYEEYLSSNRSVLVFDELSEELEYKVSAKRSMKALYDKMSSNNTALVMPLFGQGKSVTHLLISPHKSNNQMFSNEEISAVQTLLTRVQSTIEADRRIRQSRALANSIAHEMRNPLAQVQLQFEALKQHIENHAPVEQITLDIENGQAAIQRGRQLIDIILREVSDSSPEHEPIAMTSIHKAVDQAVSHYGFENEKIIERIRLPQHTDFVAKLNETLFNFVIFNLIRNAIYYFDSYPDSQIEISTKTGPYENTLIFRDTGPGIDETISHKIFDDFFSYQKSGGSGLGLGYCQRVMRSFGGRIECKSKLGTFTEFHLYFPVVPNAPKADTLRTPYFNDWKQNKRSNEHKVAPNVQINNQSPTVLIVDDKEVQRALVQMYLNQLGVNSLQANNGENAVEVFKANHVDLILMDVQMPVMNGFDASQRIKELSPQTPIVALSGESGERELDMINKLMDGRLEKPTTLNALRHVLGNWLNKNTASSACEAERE

[3] = molecular target: WT LuxN (Vibrio campbellii, UniProt A7MRY4); conditions: 100 nM AI-1; XK847
[4] = molecular target: T2, luxN^S184I/S230P (Vibrio campbellii, UniProt A7MRY4, S184I/S230P); experiment: Bioluminescence of V. harveyi XK006 carrying luxN S184I/S230P; type: cell-based, Vibrio harveyi
T2 sequence (A7MRY4 1-849 S184I/S230P): T1 sequence (A7MRY4 1-849 G147D/Y194H) with D147G, S184I, H194Y, S230P

[5] = molecular target: T3, LuxN^H210T (Vibrio campbellii, UniProt A7MRY4, H210T); experiment: Bioluminescence of V. harveyi XK006 carrying luxN H210T; type: cell-based, Vibrio harveyi; conditions: 1 μM AHL
T3 sequence (A7MRY4 1-849 H210T): T1 sequence (A7MRY4 1-849 G147D/Y194H) with D147G, H194Y, H210T

C[C@@H](O)CC(=O)N[C@H]1CCOC1=O [3OH-C4 HSL, N-((R)-3-hydroxybutanoyl)-L-homoserine lactone]
increase in light production [1]: over 1000 fold
response (dose-dependent light production) [2]: most potent agonist
induction of light production ([2]; 20 nM AI-1): 30 fold
increase in light production [3]: 1000 fold
response (dose-dependent light production) [4]: most potent agonist
response (light production) [5]: modest response
